Values of other authors, collected in patent publication US11793840B2, “Nano-armored single cell product for treating Parkinson's disease through bacteria and a preparation method thereof” (Tangyi Holdings(Shenzhen) Limited, priority 2021, dated 2023).

In the case of NCCCC(=O)O [GABA, Gamma-aminobutyric acid], the “in-vivo terminal elimination half-life” value (in vivo) is given as 25.1 min and the oral bioavailability (oral administration of GABA) is given as 9.81%.
